The text below walks through data of patent publication US7304174B2, “CaSR antagonist” (Japan Tobacco Inc., priority 2003, dated 2007).

The target of one data set is T1, human calcium receptor (Homo sapiens, UniProt P41180).
T1 construct: expressed in transfected cells; host or cells: cell strain derived from rat adrenal, co-transformed with luciferase cDNA
T1 sequence (P41180 20-1078): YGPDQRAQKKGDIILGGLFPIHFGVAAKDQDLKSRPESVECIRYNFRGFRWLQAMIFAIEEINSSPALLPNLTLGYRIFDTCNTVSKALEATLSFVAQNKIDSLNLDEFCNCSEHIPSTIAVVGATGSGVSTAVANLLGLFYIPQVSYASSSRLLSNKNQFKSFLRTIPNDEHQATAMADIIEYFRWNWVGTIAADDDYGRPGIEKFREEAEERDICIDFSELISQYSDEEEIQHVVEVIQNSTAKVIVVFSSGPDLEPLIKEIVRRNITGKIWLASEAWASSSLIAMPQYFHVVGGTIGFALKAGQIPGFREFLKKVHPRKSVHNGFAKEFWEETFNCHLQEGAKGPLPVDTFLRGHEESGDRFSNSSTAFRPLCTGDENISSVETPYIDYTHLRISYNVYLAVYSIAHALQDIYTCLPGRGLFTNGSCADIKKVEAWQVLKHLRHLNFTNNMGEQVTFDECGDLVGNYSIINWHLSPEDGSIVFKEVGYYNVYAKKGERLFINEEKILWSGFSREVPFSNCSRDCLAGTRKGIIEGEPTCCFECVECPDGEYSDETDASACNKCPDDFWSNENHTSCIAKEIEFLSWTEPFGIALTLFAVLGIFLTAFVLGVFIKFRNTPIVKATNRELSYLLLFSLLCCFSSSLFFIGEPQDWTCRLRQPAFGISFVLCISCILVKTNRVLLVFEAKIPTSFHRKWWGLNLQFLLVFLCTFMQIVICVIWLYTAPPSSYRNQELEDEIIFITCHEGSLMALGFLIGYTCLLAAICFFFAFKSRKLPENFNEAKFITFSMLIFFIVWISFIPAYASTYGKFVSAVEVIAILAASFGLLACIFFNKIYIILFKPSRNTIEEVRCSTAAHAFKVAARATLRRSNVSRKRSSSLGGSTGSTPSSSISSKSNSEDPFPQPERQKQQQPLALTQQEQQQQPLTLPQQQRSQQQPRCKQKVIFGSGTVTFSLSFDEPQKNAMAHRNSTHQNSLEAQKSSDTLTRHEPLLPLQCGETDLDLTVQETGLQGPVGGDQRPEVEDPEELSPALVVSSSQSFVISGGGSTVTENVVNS
Briefly: Evaluation of antagonistic action on calcium receptor using reporter gene (luciferase). The following applies: transformed rat adrenal derived cells, 5 mM calcium chloride, culture 4 hrs, luciferase activity; read-out: Reporter gene assay (IC50, concentration showing 50% inhibitory rate). It is filed as cell-based. In short, it runs like this: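 Rat adrenal-derived cells transfected with luciferase and human calcium receptor cDNA, in F12 with 0.5% dialyzed horse serum and 0.25% dialyzed fetal bovine serum. Luciferase luminescence gave % inhibition vs control and blank; IC50 at 50% inhibition.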
A general note: A reporter such as luciferase makes a cellular process visible.

In the next data set the target is T2, CYP2D6 (Homo sapiens, UniProt P10635).
T2 construct: purchased BD Bioscience
Nature of the data set: Metabolic enzyme CYP2D6 inhibitory activity (inhibition measurement kit). The conditions noted are these: enzyme activity free of test compound as 100%, >10 means over 10 μM. Type of data set: in vitro ADME. The procedure: Using a metabolic enzyme CYP2D6 inhibition measurement kit (BD Bioscience) and following the manual of the kit, the inhibitory activity of the test compound was measured. With the enzyme activity free of the test compound as 100%, the concentration (IC50) showing 50% inhibition was determined. The results are shown in Table 63 and Table 64, wherein “>10” means over 10 μM.

The next data set deals with PTH secretion. Briefly: PTH secretion action, Experimental Example 2 (serum PTH after oral administration). It is filed as in vivo, male SD rats. The conditions noted are these: test compound administration group, 1 mg/5 ml/kg oral, rats fasted 20 hr. On the procedure:
The test compound was orally administered to 5 to 9-week-old male SD rats (Charles River Japan, Inc.) fasted for 20 hr, using a solvent (0.5% methyl cellulose solution) at a dose of 1 mg/5 ml/kg. A solvent alone was orally administered to the control group at a dose of 5 ml/kg. The blood was drawn from the tail vein immediately before and, 15 min, 30 min, 60 min and 120 min after the administration of the test compound, and serum was obtained. The serum PTH concentration was measured using rat PTH ELISA kit (Amersham Biosciences).

In another data set the test system is PTH release. The conditions noted are these: OVX rat, cited from earlier work.

T2 sequence (P10635 whole entry): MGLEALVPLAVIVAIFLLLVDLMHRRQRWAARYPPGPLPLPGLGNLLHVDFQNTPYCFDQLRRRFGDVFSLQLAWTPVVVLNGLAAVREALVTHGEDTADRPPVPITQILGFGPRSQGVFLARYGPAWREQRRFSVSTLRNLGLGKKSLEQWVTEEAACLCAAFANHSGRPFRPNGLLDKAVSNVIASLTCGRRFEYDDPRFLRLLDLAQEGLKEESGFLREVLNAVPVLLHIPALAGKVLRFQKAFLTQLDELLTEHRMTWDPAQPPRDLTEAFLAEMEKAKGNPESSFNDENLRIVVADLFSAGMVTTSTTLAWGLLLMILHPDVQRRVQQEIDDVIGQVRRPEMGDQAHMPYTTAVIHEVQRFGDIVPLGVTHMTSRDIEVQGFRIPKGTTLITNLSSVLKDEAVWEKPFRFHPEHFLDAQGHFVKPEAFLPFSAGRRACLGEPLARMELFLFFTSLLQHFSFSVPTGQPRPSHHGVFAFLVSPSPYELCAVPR

For `CC(OC[C@H](O)CNC(C)(C)Cc1ccc2ccccc2c1)c1ccccc1OCc1ccccc1C(=O)O` (some centres unmarked) [2-20′], the figures for the IC50 on human calcium receptor and against CYP2D6 were 21 nM and above 10000 nM, respectively.
The like results for `COc1cc(-c2ccccc2[C@@H](C)OC[C@H](O)CNC(C)(C)Cc2ccc3ccccc3c2)ccc1C(=O)O` [Example 1-26, 2′-[1-[(2R)-3-[[1-(naphthalen-2-yl)-2-methylpropan-2-yl]amino]-2-hydroxypropoxy]ethyl]-3-methoxybiphenyl-4-carboxylic acid] were, in that order, 14 nM and above 10000 nM.
For `COc1cc(C(=O)O)ccc1-c1ccccc1[C@@H](C)OC[C@H](O)CNC(C)(C)Cc1ccc2ccccc2c1` [Example 1-27, 2′-[1-[(2R)-3-[[1-(naphthalen-2-yl)-2-methylpropan-2-yl]amino]-2-hydroxypropoxy]ethyl]-2-methoxybiphenyl-4-carboxylic acid], in that order: 14 nM and above 10000 nM.
For the compound `CCc1cc(-c2ccccc2[C@@H](C)OC[C@H](O)CNC(C)(C)Cc2ccc3ccccc3c2)ccc1C(=O)O` [Example 1-30, 3-ethyl-2′-[1-[(2R)-3-[[1-(naphthalen-2-yl)-2-methylpropan-2-yl]amino]-2-hydroxypropoxy]ethyl]biphenyl-4-carboxylic acid], on human calcium receptor, the IC50 came to 7 nM. For the same compound, in the data set on PTH secretion (15 min), the “Serum PTH concentration 15 min later” value came to 26.1 ± 2.3 pg/mL. The “Serum PTH concentration 30 min later” value in the data set with PTH secretion (30 min) came out at 24.2 ± 3.3 pg/mL. Also, the “Serum PTH concentration 60 min later” value in the data set with PTH secretion (60 min) was found to be 18.2 ± 1.3 pg/mL. Besides, in the data set on PTH secretion (120 min), the “Serum PTH concentration 120 min later” value was determined as 13.8 ± 0.6 pg/mL.
Turning to `CC(C)c1cc(-c2ccccc2[C@@H](C)OC[C@H](O)CNC(C)(C)Cc2ccc3ccccc3c2)ccc1C(=O)O` [Example 1-32, 2′-[1-[(2R)-3-[[1-(naphthalen-2-yl)-2-methylpropan-2-yl]amino]-2-hydroxypropoxy]ethyl]-3-isopropylbiphenyl-4-carboxylic acid], the IC50 on human calcium receptor came out at 2 nM; against CYP2D6 (human, CYP2D6 inhibition measurement kit (BD Bioscience)) it was 10000 nM.
Turning to `CCc1cc(-c2ccccc2[C@@H](C)OC[C@H](O)CNC(C)(C)Cc2ccc(C)c(F)c2)ccc1C(=O)O` [Example 1-33, 3-ethyl-2′-[1-[(2R)-3-[[1-(3-fluoro-4-methylphenyl)-2-methylpropan-2-yl]amino]-2-hydroxypropoxy]ethyl]biphenyl-4-carboxylic acid], the IC50 on human calcium receptor is 5 nM; on CYP2D6, above 10000 nM.
For `Cc1ccc(CC(C)(C)NC[C@@H](O)CO[C@H](C)c2ccccc2-c2ccc(C(=O)O)c(C(C)C)c2)cc1F` [Example 1-34, 2′-[1-[(2R)-3-[[1-(3-fluoro-4-methylphenyl)-2-methylpropan-2-yl]amino]-2-hydroxypropoxy]ethyl]-3-isopropylbiphenyl-4-carboxylic acid], in that order: 5 nM and above 10000 nM.
For `C[C@@H](OC[C@H](O)CNC(C)(C)Cc1ccc2ccccc2c1)c1ccccc1-c1ccc(C(=O)O)c(Cl)n1` [Example 1-35, 2-chloro-6-[2-[1-[(2R)-3-[[1-(naphthalen-2-yl)-2-methylpropan-2-yl]amino]-2-hydroxypropoxy]ethyl]phenyl]pyridine-3-carboxylic acid], in that order: 10 nM and above 10000 nM.
For `Cc1ccc(CC(C)(C)NC[C@@H](O)CO[C@H](C)c2ccccc2-c2ccc(C(=O)O)c(Cl)n2)cc1F` [Example 1-39, 2-chloro-6-[2-[1-[(2R)-3-[[1-(3-fluoro-4-methylphenyl)-2-methylpropan-2-yl]amino]-2-hydroxypropoxy]ethyl]phenyl]pyridine-3-carboxylic acid], in that order: 12 nM and above 10000 nM.
For `CC(C)=Cc1cc(-c2ccccc2[C@@H](C)OC[C@H](O)CNC(C)(C)Cc2ccc(C)c(F)c2)ccc1C(=O)O` [Example 1-48, 2′-[1-[(2R)-3-[[1-(3-fluoro-4-methylphenyl)-2-methylpropan-2-yl]amino]-2-hydroxypropoxy]ethyl]-3-(2-methyl-1-propenyl)biphenyl-4-carboxylic acid], the IC50 on human calcium receptor was 2 nM; on CYP2D6, above 10000 nM.
For `Cc1cc(C(=O)O)ccc1-c1ccccc1[C@@H](C)OC[C@H](O)CNC(C)(C)Cc1ccc(Cl)c(Cl)c1` [Example 1-57, 2′-[1-[(2R)-3-[[1-(3,4-dichlorophenyl)-2-methylpropan-2-yl]amino]-2-hydroxypropoxy]ethyl]-2-methylbiphenyl-4-carboxylic acid], in that order: 27 nM and above 10000 nM.
Regarding `C[C@@H](OC[C@H](O)CNC(C)(C)Cc1ccc2ccccc2c1)c1ccccc1-c1ccc(C(=O)O)c(F)c1` [Example 1-59, 3-fluoro-2′-[1-[(2R)-3-[[1-(naphthalen-2-yl)-2-methylpropan-2-yl]amino]-2-hydroxypropoxy]ethyl]biphenyl-4-carboxylic acid], the IC50 at human calcium receptor was 16 nM; against CYP2D6 it was above 10000 nM.
As to `COc1cc(CC(C)(C)NC[C@@H](O)CO[C@H](C)c2ccccc2-c2ccc(C(=O)O)c(C)c2)ccc1C` [Example 1-73, 2′-[1-[(2R)-3-[[1-(3-methoxy-4-methylphenyl)-2-methylpropan-2-yl]amino]-2-hydroxypropoxy]ethyl]-3-methylbiphenyl-4-carboxylic acid], the figures for the IC50 on human calcium receptor and against CYP2D6 were 7 nM and above 10000 nM, respectively.
The like results for `COc1cc(-c2ccccc2[C@@H](C)OC[C@H](O)CNC(C)(C)Cc2ccc(C)c(F)c2)ccc1C(=O)O` [Example 1-80, 2′-[1-[(2R)-3-[[1-(3-fluoro-4-methylphenyl)-2-methylpropan-2-yl]amino]-2-hydroxypropoxy]ethyl]-3-methoxybiphenyl-4-carboxylic acid] were, in that order, 27 nM and above 10000 nM.
The like results for `CC(OC[C@H](O)CNC(C)(C)Cc1cnc2ccccc2c1)c1ccccc1Oc1ccc(C(=O)O)cc1` (stereo partly drawn) [Example 2-5, 4-[2-[1-[(2R)-3-[[1-(quinolin-3-yl)-2-methylpropan-2-yl]amino]-2-hydroxypropoxy]ethyl]phenoxy]benzoic acid] were, in that order, 57 nM and above 10000 nM.
Turning to “rat PTH (1-34): rat parathyroid hormone fragment (1-34) administered to OVX rat (AVSEIQLMHNLGKHLASVERMQWLRKKLQDVHNF; Parathyroid hormone; UniProt P04089 32-65, looked up, fragment)”, the “Time until blood PTH returned to the original level” value in the data set with PTH release (5 μg/kg) is 2 h. Also, the “Blood PTH concentration in 30 minutes” value in the data set on PTH release (rat PTH (1-34) 5 μg/kg, NPS-2143 100 μmol/kg) is given as “about 175 pg/ml”.
